{"source": "patent US8802661B2", "about": "“C-28 amides of modified C-3 betulinic acid derivatives as HIV maturation inhibitors” (priority 2010, dated 2014)", "tested_on": "recombinant NL4-3 virus (Renilla luciferase in nef, Gag P373S)", "assay": "HIV Cell Culture Assay (luciferase reporter virus in MT-2 cells)", "assay_type": "cell-based", "procedure": "MT-2 cells and 293T cells were obtained from the NIH AIDS Research and Reference Reagent Program. MT-2 cells were propagated in RPMI 1640 media supplemented with 10% heat inactivated fetal bovine serum, […]. The 293T cells were propagated in DMEM media supplemented with 10% heat inactivated fetal bovine serum (FBS), 100 units/ml penicillin G and 100 μg/ml streptomycin. The proviral DNA clone of NL4-3 was obtained from the NIH AIDS Research and Reference Reagent Program. A recombinant NL4-3 virus, in which a section of the nef gene from NL4-3 was replaced with the Renilla luciferase gene, was used as a reference virus. In addition, residue Gag P373 was converted to P373S. Briefly, the recombinant virus was prepared by transfection of the altered proviral clone of NL4-3. Transfections were performed in 293T cells using LipofectAMINE PLUS from Invitrogen (Carlsbad, Calif.), according to manufacturer's instruction. The virus was titered in MT-2 cells using luciferase enzyme activity as a marker. Luciferase was quantitated using the Dual Luciferase kit from Promega (Madison, Wis.), with modifications to the manufacturer's protocol. The diluted Passive Lysis solution was pre-mixed with the re-suspended Luciferase Assay Reagent and the re-suspended Stop & Glo Substrate (2:1:1 ratio). Fifty (50) μL of the mixture was added to each aspirated well on assay plates and luciferase activity was measured immediately on a Wallac TriLux (Perkin-Elmer). Antiviral activities of inhibitors toward the recombinant virus were quantified by measuring luciferase activity in cells infected for 4-5 days with NLRluc recombinants in the presence serial dilutions of the inhibitor. Table 1 is the key for the data in Table 2.", "note": "Read-outs that look alike come from different tables or passages of the source.", "data": [{"smiles": "C=C(C)[C@@H]1CC[C@]2(C(=O)NCc3ccccn3)CC[C@]3(C)[C@H](CC[C@@H]4[C@@]5(C)CC=C(c6ccc(C(=O)O)cc6)C(C)(C)[C@@H]5CC[C@]43C)[C@@H]12", "note": "[Example 2, 4-((1R,3aS,5aR,5bR,7aR,11aS,11bR,13aR,13bR)-5a,5b,8,8,11a-pentamethyl-1-(prop-1-en-2-yl)-3a-(pyridin-2-ylmethylcarbamoyl)-2,3,3a,4,5,5a,5b,6,7,7a,8,11,11a,11b,12,13,13a,13b-octadecahydro-1H-cyclopenta[a]chrysen-9-yl)benzoic acid]", "values": [{"measurement": "EC50", "setting": "NL43, read-out: EC50 Group", "result": "< 100", "unit": "nM"}]}, {"smiles": "C=C(C)[C@@H]1CC[C@]2(C(=O)NCCc3cccnc3)CC[C@]3(C)[C@H](CC[C@@H]4[C@@]5(C)CC=C(c6ccc(C(=O)O)cc6)C(C)(C)[C@@H]5CC[C@]43C)[C@@H]12", "note": "[Example 3, 4-((1R,3aS,5aR,5bR,7aR,11aS,11bR,13aR,13bR)-5a,5b,8,8,11a-pentamethyl-1-(prop-1-en-2-yl)-3a-(2-(pyridin-3-yl)ethylcarbamoyl)-2,3,3a,4,5,5a,5b,6,7,7a,8,11,11a,11b,12,13,13a,13b-octadecahydro-1H-cyclopenta[a]chrysen-9-yl)benzoic acid]", "values": [{"measurement": "EC50", "setting": "NL43, read-out: EC50 Group", "result": "< 100", "unit": "nM"}]}, {"smiles": "C=C(C)[C@@H]1CC[C@]2(C(=O)NCCNc3ccc(C(=O)O)cc3)CC[C@]3(C)[C@H](CC[C@@H]4[C@@]5(C)CC=C(c6ccc(C(=O)O)cc6)C(C)(C)[C@@H]5CC[C@]43C)[C@@H]12", "note": "[Example 114, 4-(2-((1R,3aS,5aR,5bR,7aR,11aS,11bR,13aR,13bR)-9-(4-carboxyphenyl)-5a,5b,8,8,11a-pentamethyl-1-(prop-1-en-2-yl)-2,3,3a,4,5,5a,5b,6,7,7a,8,11,11a,11b,12,13,13a,13b-octadecahydro-1H-cyclopenta[a]chrysene-3a-carboxamido)ethylamino)benzoic acid]", "values": [{"measurement": "EC50", "setting": "NL43", "result": 17.6, "unit": "nM"}]}, {"smiles": "C=C(C)[C@@H]1CC[C@]2(C(=O)NCCN3CCS(=O)(=O)CC3)CC[C@]3(C)[C@H](CC[C@@H]4[C@@]5(C)CC=C(c6ccc(C(=O)O)cc6)C(C)(C)[C@@H]5CC[C@]43C)[C@@H]12", "note": "[Example 106, 4-((1R,3aS,5aR,5bR,7aR,11aS,11bR,13aR,13bR)-3a-((2-(1,1-dioxido-4-thiomorpholinyl)ethyl)carbamoyl)-1-isopropenyl-5a,5b,8,8,11a-pentamethyl-2,3,3a,4,5,5a,5b,6,7,7a,8,11,11a,11b,12,13,13a,13b-octadecahydro-1H-cyclopenta[a]chrysen-9-yl)benzoic acid]", "values": [{"measurement": "EC50", "setting": "NL43, read-out: EC50 Group", "result": "< 100", "unit": "nM"}]}, {"smiles": "C=C(C)[C@@H]1CC[C@]2(C(=O)NCCc3ccccn3)CC[C@]3(C)[C@H](CC[C@@H]4[C@@]5(C)CC=C(c6ccc(C(=O)O)cc6)C(C)(C)[C@@H]5CC[C@]43C)[C@@H]12", "note": "[Example 1, 4-((1R,3aS,5aR,5bR,7aR,11aS,11bR,13aR,13bR)-5a,5b,8,8,11a-pentamethyl-1-(prop-1-en-2-yl)-3a-(2-(pyridin-2-yl)ethylcarbamoyl)-2,3,3a,4,5,5a,5b,6,7,7a,8,11,11a,11b,12,13,13a,13b-octadecahydro-1H-cyclopenta[a]chrysen-9-yl)benzoic acid]", "values": [{"measurement": "EC50", "setting": "NL43, read-out: EC50 Group", "result": "< 100", "unit": "nM"}]}, {"smiles": "C=C(C)[C@@H]1CC[C@]2(C(=O)NCCN3CCS(=O)(=O)CC3)CC[C@]3(C)[C@H](CC[C@@H]4[C@@]5(C)CC=C(c6ccc(C(=O)O)c(F)c6)C(C)(C)[C@@H]5CC[C@]43C)[C@@H]12", "note": "[Example 116, 4-((1R,3aS,5aR,5bR,7aR,11aS,11bR,13aR,13bR)-3a-((2-(1,1-dioxido-4-thiomorpholinyl)ethyl)carbamoyl)-1-isopropenyl-5a,5b,8,8,11a-pentamethyl-2,3,3a,4,5,5a,5b,6,7,7a,8,11,11a,11b,12,13,13a,13b-octadecahydro-1H-cyclopenta[a]chrysen-9-yl)-2-fluorobenzoic acid]", "values": [{"measurement": "EC50", "setting": "NL43, read-out: EC50 Group", "result": "< 100", "unit": "nM"}]}, {"smiles": "C=C(C)[C@@H]1CC[C@]2(C(=O)NCc3cccnc3)CC[C@]3(C)[C@H](CC[C@@H]4[C@@]5(C)CC=C(c6ccc(C(=O)O)cc6)C(C)(C)[C@@H]5CC[C@]43C)[C@@H]12", "note": "[Example 29, 4-((1R,3aS,5aR,5bR,7aR,11aS,11bR,13aR,13bR)-5a,5b,8,8,11a-pentamethyl-1-(prop-1-en-2-yl)-3a-(pyridin-3-ylmethylcarbamoyl)-2,3,3a,4,5,5a,5b,6,7,7a,8,11,11a,11b,12,13,13a,13b-octadecahydro-1H-cyclopenta[a]chrysen-9-yl)benzoic acid]", "values": [{"measurement": "EC50", "setting": "NL43, read-out: EC50 Group", "result": "< 100", "unit": "nM"}]}, {"smiles": "C=C(C)[C@@H]1CC[C@]2(C(=O)N(C)Cc3ccccc3)CC[C@]3(C)[C@H](CC[C@@H]4[C@@]5(C)CC=C(c6ccc(C(=O)O)cc6)C(C)(C)[C@@H]5CC[C@]43C)[C@@H]12", "note": "[Example 18, 4-((1R,3aS,5aR,5bR,7aR,11aS,11bR,13aR,13bR)-3a-(benzyl(methyl)carbamoyl)-5a,5b,8,8,11a-pentamethyl-1-(prop-1-en-2-yl)-2,3,3a,4,5,5a,5b,6,7,7a,8,11,11a,11b,12,13,13a,13b-octadecahydro-1H-cyclopenta[a]chrysen-9-yl)benzoic acid]", "values": [{"measurement": "EC50", "setting": "NL43, read-out: EC50 Group", "result": "> 100", "unit": "nM"}]}, {"smiles": "C=C(C)[C@@H]1CC[C@]2(C(=O)N(CCO)CCN(C)C)CC[C@]3(C)[C@H](CC[C@@H]4[C@@]5(C)CC=C(c6ccc(C(=O)O)cc6)C(C)(C)[C@@H]5CC[C@]43C)[C@@H]12", "note": "[Example 77, 4-((1R,3aS,5aR,5bR,7aR,11aS,11bR,13aR,13bR)-3a-((2-(dimethylamino)ethyl)(2-hydroxyethyl)carbamoyl)-5a,5b,8,8,11a-pentamethyl-1-(prop-1-en-2-yl)-2,3,3a,4,5,5a,5b,6,7,7a,8,11,11a,11b,12,13,13a,13b-octadecahydro-1H-cyclopenta[a]chrysen-9-yl)benzoic acid]", "values": [{"measurement": "EC50", "setting": "NL43, read-out: EC50 Group", "result": "> 100", "unit": "nM"}]}, {"smiles": "C=C(C)[C@@H]1CC[C@]2(C(=O)NCCN(CC)CC(=O)O)CC[C@]3(C)[C@H](CC[C@@H]4[C@@]5(C)CC=C(c6ccc(C(=O)O)cc6)C(C)(C)[C@@H]5CC[C@]43C)[C@@H]12", "note": "[Example 83, 4-((1R,3aS,5aR,5bR,7aR,11aS,11bR,13aR,13bR)-3a-(2-((carboxymethyl)(ethyl)amino)ethylcarbamoyl)-5a,5b,8,8,11a-pentamethyl-1-(prop-1-en-2-yl)-2,3,3a,4,5,5a,5b,6,7,7a,8,11,11a,11b,12,13,13a,13b-octadecahydro-1H-cyclopenta[a]chrysen-9-yl)benzoic acid]", "values": [{"measurement": "EC50", "setting": "NL43, read-out: EC50 Group", "result": "< 100", "unit": "nM"}]}, {"smiles": "C=C(C)[C@@H]1CC[C@]2(C(=O)NCCN3CCCCC3)CC[C@]3(C)[C@H](CC[C@@H]4[C@@]5(C)CC=C(c6ccc(C(=O)O)cc6)C(C)(C)[C@@H]5CC[C@]43C)[C@@H]12", "note": "[Example 33, 4-((1R,3aS,5aR,5bR,7aR,11aS,11bR,13aR,13bR)-5a,5b,8,8,11a-pentamethyl-3a-(2-(piperidin-1-yl)ethylcarbamoyl)-1-(prop-1-en-2-yl)-2,3,3a,4,5,5a,5b,6,7,7a,8,11,11a,11b,12,13,13a,13b-octadecahydro-1H-cyclopenta[a]chrysen-9-yl)benzoic acid]", "values": [{"measurement": "EC50", "setting": "NL43, read-out: EC50 Group", "result": "< 100", "unit": "nM"}]}]}
